Assay results as given in PMC7932537, “Quantitative profiling of protease specificity” (PLoS Computational Biology, 2021).

How the values were obtained:
MMP-2 [1] = assay: Substrate phage display with NGS: relative probability (RP) of P3-P1' tetramer clusters; type: biochemical, human; conditions: MMP2;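 also: ratio of tetramer probability after protease selection to that in naive phage library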
MMP-2 [2] = target: T1, MMP-2 (Homo sapiens, UniProt P08253); assay: K(obs) of individual phage substrates (set of 1369); type: biochemical; conditions: MMP2
T1 sequence (P08253 110-660): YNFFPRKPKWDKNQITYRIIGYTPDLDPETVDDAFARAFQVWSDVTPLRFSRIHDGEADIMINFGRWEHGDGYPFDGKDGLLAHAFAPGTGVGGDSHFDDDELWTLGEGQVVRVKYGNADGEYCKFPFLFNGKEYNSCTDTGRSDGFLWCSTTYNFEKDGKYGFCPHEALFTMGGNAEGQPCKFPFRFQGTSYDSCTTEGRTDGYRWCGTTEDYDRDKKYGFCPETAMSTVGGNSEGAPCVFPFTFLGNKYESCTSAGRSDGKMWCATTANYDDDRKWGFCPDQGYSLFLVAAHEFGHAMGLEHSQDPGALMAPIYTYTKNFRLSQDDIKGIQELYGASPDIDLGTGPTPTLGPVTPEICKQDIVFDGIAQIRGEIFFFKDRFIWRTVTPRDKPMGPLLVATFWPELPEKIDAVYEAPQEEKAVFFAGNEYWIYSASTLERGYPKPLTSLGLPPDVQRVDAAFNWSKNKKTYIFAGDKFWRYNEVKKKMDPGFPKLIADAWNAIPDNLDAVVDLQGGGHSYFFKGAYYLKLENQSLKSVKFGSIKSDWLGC

MMP-9 = MMP-9 (Homo sapiens, UniProt P14780); assay: as above; type: biochemical; conditions: MMP9
MMP-9, sequence (P14780 94-707): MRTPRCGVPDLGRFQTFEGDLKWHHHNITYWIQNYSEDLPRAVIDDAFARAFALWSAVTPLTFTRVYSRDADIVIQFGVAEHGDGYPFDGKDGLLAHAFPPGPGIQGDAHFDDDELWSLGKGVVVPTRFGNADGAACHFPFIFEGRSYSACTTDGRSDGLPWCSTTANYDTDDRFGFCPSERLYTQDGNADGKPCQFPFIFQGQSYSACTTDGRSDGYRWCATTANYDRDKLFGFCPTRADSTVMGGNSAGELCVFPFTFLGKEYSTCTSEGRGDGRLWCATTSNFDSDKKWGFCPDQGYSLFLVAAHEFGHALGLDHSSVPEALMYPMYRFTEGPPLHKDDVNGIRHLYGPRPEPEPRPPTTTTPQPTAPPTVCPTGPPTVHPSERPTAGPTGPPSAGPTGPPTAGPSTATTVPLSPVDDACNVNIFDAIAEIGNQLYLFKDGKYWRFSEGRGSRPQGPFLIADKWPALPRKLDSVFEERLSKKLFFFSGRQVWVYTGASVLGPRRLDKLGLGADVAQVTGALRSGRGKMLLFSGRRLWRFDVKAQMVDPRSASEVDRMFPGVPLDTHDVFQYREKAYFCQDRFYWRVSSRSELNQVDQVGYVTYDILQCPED

[3] = RP of the P3-P1' tetramer contained in the substrate
[4] = individual phage substrate of the set of 1369 peptides, cleavage position marked by '-'
[5] = individual phage substrate of the set of 1369 peptides, dash in the sequence marks the cleavage position
[6] = RP of the P3-P1' tetramer contained in the substrate (substrate phage display with NGS)
[7] = individual phage substrates, set of 1369 peptides, cleavage position marked by hyphen in sequence
[8] = individual phage substrates, set of 1369 peptides, hyphen in sequence marks cleavage position

Substance | relative probability (RP) (MMP-2 [1]; [3]) | Kobs (MMP-2 [2]; [4]) | Kobs (MMP-9; [5]) | relative probability (RP) (MMP-2 [1]; [6]) | Kobs (MMP-2 [2]; [7]) | Kobs (MMP-9; [8])
SGPRA-LKGTA | 35.2345 | 12792.1 M⁻¹ s⁻¹ | 12792.1 M⁻¹ s⁻¹ |  |  | 
SGPRF-IRLTA | 22.3274 | 1154.21 M⁻¹ s⁻¹ | 2097.28 M⁻¹ s⁻¹ |  |  | 
SGPRG-QVFTA | 29.4864 | 12792.1 M⁻¹ s⁻¹ | 8941.32 M⁻¹ s⁻¹ |  |  | 
SGPRM-LVLTA | 30.5973 | 4082.43 M⁻¹ s⁻¹ | 6688.74 M⁻¹ s⁻¹ |  |  | 
SGPRP-LLATA | 34.3303 | 12792.1 M⁻¹ s⁻¹ | 12792.1 M⁻¹ s⁻¹ |  |  | 
SGPRP-LYHTA |  |  |  | 34.3303 | 12792.1 M⁻¹ s⁻¹ | 12792.1 M⁻¹ s⁻¹
SGPRS-LYTTA | 33.3704 | 12792.1 M⁻¹ s⁻¹ | 12792.1 M⁻¹ s⁻¹ |  |  | 
SGPRS-MLNTA | 32.6673 | 6688.74 M⁻¹ s⁻¹ | 5461.43 M⁻¹ s⁻¹ |  |  | 
SGPRW-MKGTA |  |  |  | 32.3694 | 4205.91 M⁻¹ s⁻¹ | 7815.03 M⁻¹ s⁻¹
SGPSG-MRVTA |  |  |  | 32.7604 | 7386.83 M⁻¹ s⁻¹ | 6688.74 M⁻¹ s⁻¹
SGPSM-LTATA |  |  |  | 33.0235 | 9740.44 M⁻¹ s⁻¹ | 7386.83 M⁻¹ s⁻¹
SGPSS-LFATA | 35.4913 | 12792.1 M⁻¹ s⁻¹ | 12792.1 M⁻¹ s⁻¹ |  |  | 
SGPSW-LYTTA |  |  |  | 35.705 | 9740.44 M⁻¹ s⁻¹ | 10866.7 M⁻¹ s⁻¹
SGPTA-LRATA | 32.8941 | 10866.7 M⁻¹ s⁻¹ | 12792.1 M⁻¹ s⁻¹ |  |  | 
SGPTN-LRTTA | 31.0288 | 12792.1 M⁻¹ s⁻¹ | 12792.1 M⁻¹ s⁻¹ |  |  | 
SGPVA-LYKTA |  |  |  | 34.2983 | 12792.1 M⁻¹ s⁻¹ | 12792.1 M⁻¹ s⁻¹
SGPVH-LLNTA | 32.2352 | 3344.37 M⁻¹ s⁻¹ | 2280.5 M⁻¹ s⁻¹ |  |  | 
SGPVM-LRGTA |  |  |  | 25.0294 | 12792.1 M⁻¹ s⁻¹ | 12792.1 M⁻¹ s⁻¹
SGPVN-LISTA | 34.508 | 6131.32 M⁻¹ s⁻¹ | 12792.1 M⁻¹ s⁻¹ |  |  | 
SGPYP-LWKTA | 30.8058 | 2218.08 M⁻¹ s⁻¹ | 3079.62 M⁻¹ s⁻¹ |  |  | 
SGPYT-LVMTA |  |  |  | 16.827 | 517.582 M⁻¹ s⁻¹ | 8321.48 M⁻¹ s⁻¹
SGQRG-IYATA | 7.484 | 2157.02 M⁻¹ s⁻¹ | 3344.37 M⁻¹ s⁻¹ |  |  | 
SGRRN-LMNTA |  |  |  | 6.1579 | 912.511 M⁻¹ s⁻¹ | 484.315 M⁻¹ s⁻¹
SGSHG-LRSTA | 0.2009 | 1763.55 M⁻¹ s⁻¹ | 1154.21 M⁻¹ s⁻¹ |  |  | 
SGSLA-LQSTA |  |  |  | 6.019 | 27.918 M⁻¹ s⁻¹ | 619.843 M⁻¹ s⁻¹
SGSMR-LVLTA |  |  |  | 0 | 0 M⁻¹ s⁻¹ | 0 M⁻¹ s⁻¹
SGSRA-LTASG | 12.4506 | 2097.28 M⁻¹ s⁻¹ | 951.362 M⁻¹ s⁻¹ |  |  | 

Substance | relative probability (RP) (MMP-2 [1]; [3]) | Kobs (MMP-2 [2]; [4]) | Kobs (MMP-9; [5]) | relative probability (RP) (MMP-2 [1]; [6]) | Kobs (MMP-2 [2]; [7]) | Kobs (MMP-9; [8])
SGTLN-LYNTA | 2.764 | 0 M⁻¹ s⁻¹ | 0 M⁻¹ s⁻¹ |  |  | 
SGVFW-MRGTA |  |  |  | 10.3215 | 3438.54 M⁻¹ s⁻¹ | 5461.43 M⁻¹ s⁻¹
SGVLG-LIGTA |  |  |  | 24.4128 | 12792.1 M⁻¹ s⁻¹ | 12792.1 M⁻¹ s⁻¹
SGVMG-IRITA | 12.4242 | 484.315 M⁻¹ s⁻¹ | 1418.96 M⁻¹ s⁻¹ |  |  | 
SGVNH-LMTTA | 12.8499 | 201.585 M⁻¹ s⁻¹ | 231.616 M⁻¹ s⁻¹ |  |  | 
SGVRA-IIATA | 26.2338 | 12792.1 M⁻¹ s⁻¹ | 12792.1 M⁻¹ s⁻¹ |  |  | 
SGVRF-LKGTA |  |  |  | 15.0438 | 5269.78 M⁻¹ s⁻¹ | 12792.1 M⁻¹ s⁻¹
SGVRF-LMNTA | 15.0438 | 1418.96 M⁻¹ s⁻¹ | 9740.44 M⁻¹ s⁻¹ |  |  | 
SGVRH-LINTA | 25.4239 | 1763.55 M⁻¹ s⁻¹ | 8321.48 M⁻¹ s⁻¹ |  |  | 
SGVRH-VRATA | 9.5401 | 3850.82 M⁻¹ s⁻¹ | 12792.1 M⁻¹ s⁻¹ |  |  | 
SGVRW-YSNTA | 17.3102 | 874.197 M⁻¹ s⁻¹ | 5667.28 M⁻¹ s⁻¹ |  |  | 
SGVRY-LYGTA |  |  |  | 18.3724 | 3637.04 M⁻¹ s⁻¹ | 8941.32 M⁻¹ s⁻¹
SGVSF-LQQTA | 5.918 | 1373.05 M⁻¹ s⁻¹ | 0 M⁻¹ s⁻¹ |  |  | 
SGVWG-IYVTA |  |  |  | 3.01 | 484.315 M⁻¹ s⁻¹ | 2761.81 M⁻¹ s⁻¹
SGVWN-LIMTA | 14.4124 | 619.843 M⁻¹ s⁻¹ | 6688.74 M⁻¹ s⁻¹ |  |  | 
SGVYS-LIKTA |  |  |  | 16.838 | 27.918 M⁻¹ s⁻¹ | 836.403 M⁻¹ s⁻¹
SGVYW-LRSTA | 16.4375 | 9740.44 M⁻¹ s⁻¹ | 12792.1 M⁻¹ s⁻¹ |  |  | 
SGWAP-LLRTA |  |  |  | 23.9342 | 142.481 M⁻¹ s⁻¹ | 142.481 M⁻¹ s⁻¹
SGWSG-MMATA |  |  |  | 18.3143 | 1112.44 M⁻¹ s⁻¹ | 171.876 M⁻¹ s⁻¹
SGWSN-LMRTA |  |  |  | 17.9326 | 0 M⁻¹ s⁻¹ | 0 M⁻¹ s⁻¹
SGYAN-MRRTA |  |  |  | 22.6837 | 2097.28 M⁻¹ s⁻¹ | 762.325 M⁻¹ s⁻¹
SGYAS-MVATA |  |  |  | 24.1553 | 5667.28 M⁻¹ s⁻¹ | 0 M⁻¹ s⁻¹
SGYMS-LIATA |  |  |  | 0.07249 | 386.839 M⁻¹ s⁻¹ | 0 M⁻¹ s⁻¹
SGYRS-LTLTA |  |  |  | 1.506 | 292.668 M⁻¹ s⁻¹ | 27.918 M⁻¹ s⁻¹
SGYRS-LYSTA |  |  |  | 1.506 | 2280.5 M⁻¹ s⁻¹ | 2476.66 M⁻¹ s⁻¹
SGYYG-LRATA |  |  |  | 0.142 | 874.197 M⁻¹ s⁻¹ | 12792.1 M⁻¹ s⁻¹
